Values joined by “and” are separate entries in the source; they are usually repeats but may differ in a detail not shown here. Equal values may be shown once. Read-outs that look alike come from different tables or passages of the source.
What was measured:
[1] = target: T1, Factor XIIIa (activated FXIII) (Homo sapiens, UniProt P00488); assay: Inactivation of purified Factor XIIIa (monodansylcadaverine incorporation into dimethylcasein, fluorescence); type: biochemical; settings: for kinact/KI: read-out: Second order rate constant for inactivation
T1 construct: purchased Enzyme Research Laboratories, Ltd
T1 sequence (P00488 39-732 limits assumed): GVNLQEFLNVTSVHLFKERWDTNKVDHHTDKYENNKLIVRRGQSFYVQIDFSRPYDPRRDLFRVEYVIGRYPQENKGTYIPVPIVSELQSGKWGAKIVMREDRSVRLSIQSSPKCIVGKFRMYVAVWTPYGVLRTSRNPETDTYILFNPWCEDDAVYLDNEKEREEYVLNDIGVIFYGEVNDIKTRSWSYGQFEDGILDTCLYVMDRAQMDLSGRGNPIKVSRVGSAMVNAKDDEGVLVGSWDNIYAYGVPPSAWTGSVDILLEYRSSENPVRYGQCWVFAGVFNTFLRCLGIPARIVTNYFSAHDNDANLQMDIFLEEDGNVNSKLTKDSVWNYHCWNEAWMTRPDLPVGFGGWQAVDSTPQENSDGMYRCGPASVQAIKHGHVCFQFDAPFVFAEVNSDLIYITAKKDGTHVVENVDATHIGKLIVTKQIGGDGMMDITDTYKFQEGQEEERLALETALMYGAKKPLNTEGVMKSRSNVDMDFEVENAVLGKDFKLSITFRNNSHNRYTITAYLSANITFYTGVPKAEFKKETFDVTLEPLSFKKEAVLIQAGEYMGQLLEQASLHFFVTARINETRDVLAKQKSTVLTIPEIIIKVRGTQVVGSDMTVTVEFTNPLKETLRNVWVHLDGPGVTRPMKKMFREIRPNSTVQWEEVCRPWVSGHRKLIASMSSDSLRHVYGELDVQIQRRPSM
Protocol: FXIII (0.5 mg/mL, Enzyme Research Laboratories, Ltd.) in 50 mM Tris-HCl pH 7.5 containing 100 mM NaCl, 40 mM CaCl2, 1 mM EDTA and 0.1% poly(ethylene glycol) (app. MW=8000) was activated by incubation with 10 NIH units/mL of human thrombin (Calbiochem) at 37° C. for 20 min. Thrombin was quenched with 20 NIH units/mL of hirudin from Leech (Sigma).
Inhibitor solution in DMSO (14 μL) was added to 120 μL of 250 mM Tris-Cl pH 7.5 containing 40 mM CaCl2 and 1 mM EDTA and the solution was incubated at 37° C. for two minutes. Activated FXIII (5 μL, 0.5 mg/mL) was added and the mixture was incubated at 37° C. for 5 min.
An assay mixture composed of 50 mM Tris-Cl pH 8.0, 10 mM CaCl2, 1 mM EDTA, 0.1% poly(ethylene glycol) (app. MW=1000) and 20 μM monodansylcadaverine was prepared in a spectrofluorometric cell in a final volume of 2880 μL. Dimethylcasein (8 μL, 1% in 50 mM sodium phosphate pH 7.5) was added and the solution was incubated at 37° C. for a few minutes. To assay the residual enzyme activity, 120 μL of the solution containing the enzyme and the inhibitor was transferred to the assay mixture. The covalent incorporation of monodansylcadaverine into casein was monitored by an increase in fluorescence at λexc=360 nm and λem=500 nm as previously described (Curtis, C. G.; Lorand, L. Methods Enzymol. 1976, 45, 177-191). To determine uninhibited enzyme activity, DMSO was used in place of inhibitor solution in the above assay. IC50 were determined by plotting the percent of remaining enzyme activity against logarithm of inhibitor concentration. IC50 is defined here as an inhibitor concentration resulting in 50% enzyme inactivation after 5-min incubation of the enzyme with the inhibitor in the absence of the substrate. Second order rate constants for inactivation were determined using method described by Kitz and Wilson (Kitz, R.; Wilson, I. J. Biol. Chem. 1962, 237, 3245).

Guinea pig liver TGase = target: T2, Guinea pig liver TGase (Cavia cutleri, UniProt P08587); assay: Enzyme selectivity: inactivation of tissue type transglutaminase; type: biochemical; settings: 5-min incubation at 37° C. in the absence of substrate
T2 construct: Guinea pig liver TGase; from tissue; host or cells: guinea pig liver
T2 sequence (P08587 2-690): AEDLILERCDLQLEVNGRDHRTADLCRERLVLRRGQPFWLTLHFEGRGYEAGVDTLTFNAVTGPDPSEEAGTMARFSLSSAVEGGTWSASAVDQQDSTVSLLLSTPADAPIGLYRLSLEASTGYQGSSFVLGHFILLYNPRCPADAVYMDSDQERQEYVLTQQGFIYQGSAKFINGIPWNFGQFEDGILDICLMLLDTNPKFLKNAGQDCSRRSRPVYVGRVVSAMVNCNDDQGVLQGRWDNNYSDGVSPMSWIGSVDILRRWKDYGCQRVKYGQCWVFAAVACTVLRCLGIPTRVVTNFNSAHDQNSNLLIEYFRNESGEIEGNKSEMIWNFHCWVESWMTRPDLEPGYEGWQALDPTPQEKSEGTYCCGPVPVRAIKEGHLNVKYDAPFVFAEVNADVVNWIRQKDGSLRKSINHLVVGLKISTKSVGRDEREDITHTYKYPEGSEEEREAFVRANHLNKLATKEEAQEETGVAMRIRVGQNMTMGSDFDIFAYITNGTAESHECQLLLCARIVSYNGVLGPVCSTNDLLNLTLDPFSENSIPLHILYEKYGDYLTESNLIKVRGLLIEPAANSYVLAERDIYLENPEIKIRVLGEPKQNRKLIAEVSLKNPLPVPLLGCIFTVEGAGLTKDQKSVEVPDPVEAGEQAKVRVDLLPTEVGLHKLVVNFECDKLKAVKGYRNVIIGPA
Protocol: Enzyme selectivity . Inactivation of tissue type transglutaminase: Inhibitor solution in DMSO (5 μL) was added to 250 mM Tris-Cl pH 7.5 containing 40 mM CaCl2 and 1 mM EDTA in a final volume of 42 μL. Guinea pig liver TGase (3 μL, 2.5 mg/mL in 5 mM Tris-HCl pH 7.5, 2 mM EDTA) was added and the mixture was incubated for 5 min. at 37° C.
An assay mixture composed of 50 mM Tris-Cl, pH 8.0, 10 mM CaCl2, 1 mM EDTA, 0.1% poly(ethylene glycol) (app. MW=1000) and 20 μM monodansylcadaverine was prepared in a spectrofluorimetric cell in a final volume of 2952 μL. Dimethylcasein (8 μL, 1% in 50 mM sodium phosphate pH 7.5) was added and the mixture was incubated at 37° C. for a few minutes. To assay the residual enzyme activity, 40 μL of the solution containing the enzyme and the inhibitor was transferred to the assay mixture. The covalent incorporation of monodansylcadaverine into casein was monitored by an increase in fluorescence at λexc=360 nm and λem=500 nm, as previously described ((Curtis, C. G.; Lorand, L. Methods Enzymol. 1976, 45, 177-191). To determine uninhibited enzyme activity, DMSO was used in place of inhibitor solution in the above assay. IC50 values were determined by plotting the percent of remaining enzyme activity against logarithm of inhibitor concentration. IC50 is defined here as inhibitor concentration resulting in 50% enzyme inactivation after 5-min incubation of the enzyme with the inhibitor in the absence of the substrate. Second order rate constants for inactivation were determined using method described by Kitz and Wilson (Kitz, R.; Wilson, I. J.Biol.Chem. 1962,237, 3245).

[2] = values without asterisk, purified FXIIIa, 5-min incubation, read-out: FXIIIa IC50 determined by method in Example 16
[3] = purified Factor XIIIa, method of Kitz and Wilson
[4] = TGAse IC50, Guinea pig liver TGase
[5] = purified activated FXIII, 50% enzyme inactivation after 5-min incubation with inhibitor at 37° C. in the absence of substrate, read-out: FXIIIa (IC50 in μM)

Row | IC50 [1, 5] [µM] | Compound | other results
1 | 1.3 | O=S(=O)(NCCCCCCNc1nsc2nccn12)c1ccc(-c2ccccc2)cc1 [4-Ph-Ph, N-[6-(imidazo[1,2-d][1,2,4]thiadiazol-3-ylamino)hexyl]-4-phenylbenzenesulfonamide] | 
2 | 6.5 | Cc1ccc(S(=O)(=O)N[C@@H](CCCCNc2nsc3nccn23)C(=O)N2CCN(Cc3ccccc3)CC2)cc1 [4-benzyl-{N^ε-imidazo[1,2-d][1,2,4]thiadiazol-3-yl-N^α-[(4-methylphenyl)sulfonyl]lysyl}piperazine] | 
3 | 6.8 | O=C(O)CCCCCN(CCCCCCNc1nsc2nccn12)S(=O)(=O)c1ccc(F)cc1F [5 / OH / 2-F-4-F-Ph, 6-{[(2,4-difluorophenyl)sulfonyl][6-(imidazo[1,2-d][1,2,4]thiadiazol-3-ylamino)hexyl]amino}hexanoic acid] | 
4 | 0.6 | CN(CCCCCCN(C)S(=O)(=O)c1ccccc1[N+](=O)[O-])c1nsc2nccn12 [CH3 / CH3 / 2-NO2-Ph, N-{6-[imidazo[1,2-d][1,2,4]thiadiazol-3-yl(methyl)amino]hexyl}-N-methyl-2-nitrobenzenesulfonamide] | 
5 | 1.3 | CN(CCCCCCNc1nsc2nccn12)S(=O)(=O)c1ccccc1[N+](=O)[O-] [CH3 / H / 2-NO2-Ph, N-[6-(Imidazo[1,2-d][1,2,4]thiadiazol-3-ylamino)hexyl]-N-methyl-2-nitro benzene sulfonamide] | 
6 | 0.88 | COC(=O)CN(CCCCCCNS(=O)(=O)c1ccccc1[N+](=O)[O-])c1nsc2nccn12 [H / CH2COOMe / 2-NO2-Ph, methyl N-imidazo[1,2-d][1,2,4]thiadiazol-3-yl-N-(6-{[(2-nitrophenyl)sulfonyl]amino}hexyl)glycinate] | 
7 | 6.7 | Cc1ccc(S(=O)(=O)N[C@@H](CCCCNc2nsc3nccn23)C(=O)NCc2ccc(F)cc2)cc1 [N-(4-fluorobenzyl)-N^ε-imidazo[1,2-d][1,2,4]thiadiazol-3-yl-N^α-[(4-methylphenyl)sulfonyl]lysinamide] | 
8 | 2.6 | O=S(=O)(NCCCCCCNc1nsc2nccn12)c1cccc2cccnc12 [Quinoline-8-, N-[6-(imidazo[1,2-d][1,2,4]thiadiazol-3-ylamino)hexyl]quinoline-8-sulfonamide] | 
9 | 6.7 | Cc1ccc(S(=O)(=O)N[C@@H](CCCCNc2nsc3nccn23)C(=O)O)cc1 [—CH(COOH)—NH— / 4-Me-Ph, N^ε-imidazo[1,2-d][1,2,4]thiadiazol-3-yl-N^α-[(4-methylphenyl)sulfonyl]lysine] | 

The next lines start with the compound.

Row | Compound | IC50 [1, 5] [µM] | other results
10 | O=C(N1CCc2ccc(S(=O)(=O)NCCCCCCNc3nsc4nccn34)cc2C1)C(F)(F)F |  | IC50 [1, 2]: 11 µM; IC50 (Guinea pig liver TGase; read-out: TGAse IC50, Guinea pig liver TGase): 17 µM
11 | O=S(=O)(NCCCCCCNc1nsc2nccn12)c1ccccc1C(F)(F)F [2-CF3-Ph / H, N-[6-(imidazo[1,2-d][1,2,4]thiadiazol-3-ylamino)hexyl]-2-trifluoromethylbenzenesulfonamide] |  | kinact/KI [1, 3]: 12000 M⁻¹ s⁻¹; IC50 ([1]; values marked *, read-out: FXIIIa IC50, *values calculated from second order rate constant for inactivation): 0.26 µM and 0.18 µM; IC50 (Guinea pig liver TGase; [4]): 7.5 µM and 3.8 µM
12 | CN(CCCCCCNS(=O)(=O)c1ccccc1[N+](=O)[O-])c1nsc2nccn12 [2-NO2-Ph / CH3, N-{6-[imidazo[1,2-d][1,2,4]thiadiazol-3-yl(methyl)amino]hexyl}-2-nitrobenzenesulfonamide] |  | IC50 (Guinea pig liver TGase; [4]): 6.2 µM
13 | CN(CCCCCCNc1nsc2nccn12)S(=O)(=O)c1cccc2ccccc12 [CH3 / H / 1-naphthyl, N-[6-(imidazo[1,2-d][1,2,4]thiadiazol-3-ylamino)hexyl]-N-methylnaphthalene-1-sulfonamide] | 2.4 | 
14 | O=[N+]([O-])c1ccc(NCCCCCCNc2nsc3nccn23)c([N+](=O)[O-])c1 [N^1-(2,4-dinitrophenyl)-N^6-imidazo[1,2-d][1,2,4]thiadiazol-3-ylhexane-1,6-diamine] |  | kinact/KI [1, 3]: 8900 M⁻¹ s⁻¹
15 | Cc1ccc(S(=O)(=O)NC(CCCCNc2nsc3nccn23)C(N)=O)cc1 (centres unmarked) [—CH(CONH2)—NH— / 4-Me-Ph] | 9.1 | 
16 | COC(=O)[C@H](CCCCNc1nsc2nccn12)NS(=O)(=O)c1ccc(C)cc1 [—CH(COOMe)—NH— / 4-Me-Ph, methyl N^ε-imidazo[1,2-d][1,2,4]thiadiazol-3-yl-N^α-[(4-methylphenyl)sulfonyl]lysinate] | 7 | 
17 | N-imidazo[1,2-d][1,2,4]thiadiazol-3-yl-N-(6-{[(2-nitrophenyl)sulfonyl]amino}hexyl)glycinamide [H / CH2CONH2 / 2-NO2-Ph] | 0.42 | Second order rate constant for inactivation [1, 3]: 6700 M⁻¹ s⁻¹; IC50 [1, 2]: 0.42 µM; IC50 (Guinea pig liver TGase; Guinea pig liver TGase, read-out: TGAse IC50): 32 µM
